Results: publication PMC8341874 (RSC Chemical Biology, 2021)

Tested on: 20S core particle (20S CP) of the proteasome
Assay: FRET peptide reporter hydrolysis, single concentration
Assay type: biochemical, Homo sapiens
Details: stimulator (activation); site unknown

% stimulation over control at 25 μM: 215%
Compound: C[C@H]1[C@H](C)CC[C@]2(C(=O)O)CC[C@]3(C)C(=CC[C@@H]4[C@@]5(C)CC[C@H](O)C(C)(C)[C@@H]5CC[C@]43C)[C@H]12 [UA, ursolic acid]
